Experimental data: patent US20110166223A1, “METHODS OF INHIBITING FGFR3 SIGNALING” (CEDARS-SINAI MEDICAL CENTER, priority 2008, published 2011)

Target: T1, recombinant tyrosine kinase (TK) domain of FGFR3 (Homo sapiens, UniProt P22607)
T1 construct: recombinant tyrosine kinase (TK) domain of FGFR3 (Glu-322-Thr-806; Cell Signaling); purchased Cell Signaling
Test: Cell-free FGFR3 kinase assay with STAT1 as substrate
Type: biochemical
Details: for effect on FGFR3 kinase activity (in words): added directly to the kinase reaction, FIG. 4
Method: FIG. 4, in accordance with an embodiment herein, depicts 4,4′,4″,4′″-[carbonyl-bis[imino-5,1,3-benzenetriyl bis-{carbonylimino}]]tetrakis-{benzene-1,3-disulfonic acid} inhibits FGFR3 activity in a kinase assay. (a, b) Cell-free kinase assays were carried out as described herein, with recombinant tyrosine kinase (TK) domain of FGFR3 as a kinase, recombinant STAT1 as a substrate, and NF449 added directly to the kinase reaction. FGFR3-mediated phosphorylation of STAT1 was detected by WB with P-STAT1 (Y^701) antibody. The membrane was reprobed with FGFR3 and STAT1 antibodies to control for kinase and substrate quantity. The sample with ATP omitted serves as a negative control for the kinase reaction. Note the FGFR3-mediated phosphorylation of STAT1 is inhibited by 4,4′,4″,4′″-[carbonyl-bis[imino-5,1,3-benzenetriyl bis-{carbonylimino}]]tetrakis-{benzene-1,3-disulfonic acid}. The P-STAT1 and STAT1 signal was quantified by densitometry and expressed as a ratio between P-STAT1 and STAT1 signal for each given sample (b, lower graph). (c) The FGFR3 kinase assay was carried-out as described in (a) with 4,4′,4″,4′″-[carbonyl-bis[imino-5,1,3-benzenetriyl bis-{carbonylimino}]]tetrakis-{benzene-1,3-disulfonic acid}, 8,8′-[carbonylbis[imino-3,1-phenylenecarbonylimino{4-methyl-3,1-phenylene}carbonylimino]]bis-1,3,5-naphthalenetrisulfonic acid or 8,8′-[carbonylbis[imino-3,1-phenylene]]bis-{1,3,5-naphthalenetrisulfonic acid} added to the kinase reaction. Note the differential effects of 8,8′-[carbonylbis[imino-3,1-phenylenecarbonylimino{4-methyl-3,1-phenylene}carbonylimino]]bis-1,3,5-naphthalenetrisulfonic acid and 8,8′-[carbonylbis[imino-3,1-phenylene]]Bis-{1,3,5-naphthalenetrisulfonic acid} on the FGFR3-mediated phosphorylation of STAT1, which corresponds to their activity in the RCS growth-arrest experiment (lower graph). Data are an average from four wells with the indicated standard deviation. Statistically significant rescue of the growth arrest is indicated (Student's I-test; *-p<0.01).
OPM2 and KMS11 cells were lysed in ice-cold immunoprecipitation buffer (50 mM Tris-HCl pH 7.4, 150 mM NaCl, 0.5% NP-40, 1 mM EDTA, 25 mM NaF) supplemented with proteinase inhibitors and 10 mM sodium orthovanadate. Protein samples were resolved by SDS-PAGE and transferred onto a PVDF membrane. The following antibodies were used: Erk1/2, P-Erk1/2^T202/Y204, STAT1, P-STAT1^Y701 (Cell Signaling, Beverly, Mass.) and FGFR3 (Santa Cruz Biotechnology, Santa Cruz, Calif.). Western blotting signal was quantified by determining the integrated optical density (I.O.D.) of a given band using Scion Image software (Scion Corporation, Frederick, Mass.). Immunoprecipitations and FGFR3 kinase assays were performed as described. Briefly, the pRK7 vector encoding C-terminally FLAG-tagged K650E-FGFR3 was transfected into CHO cells using FuGENE6 reagent according to the manufacturer's protocol (Roche Applied Science, Indianapolis, Ind.). 48 hours after transfection, cells were treated with 20 ng/ml of FGF2 for 15 minutes and K650E-FGFR3 was immunoprecipitated from 800 μg of cell lysate protein using 4 μg of anti-FLAG antibody (Sigma-Aldrich, St. Louis, Mo.). Cells transfected with a plasmid encoding green fluorescent protein (pCCEY) serve as a negative control for the immunoprecipitation. Immunocomplexes were washed two times with kinase buffer (60 mM HEPES-NaOH pH 7.5, 3 mM MgCl2, 3 mM MnCl2, 3 μM Na3VO4, 1.2 mM dithiothreitol), and the kinase reactions were performed for 30 minutes at 30° C. in the presence of 2.5 μg of polyethylene glycol, 10 μM ATP, 300 ng of recombinant STAT1 (Active Motif, Carlsbad, Calif.) as a substrate, and NF449 added directly to the kinase reaction. Kinase assays utilizing recombinant tyrosine kinase (TK) domain of FGFR3 (Glu-322-Thr-806; Cell Signaling) were carried-out similarly, with 300 ng of kinase used in 50 μl reaction, and suramin, NF449 and NF023 added directly to the kinase reaction. […]

T1 sequence (P22607 322-806): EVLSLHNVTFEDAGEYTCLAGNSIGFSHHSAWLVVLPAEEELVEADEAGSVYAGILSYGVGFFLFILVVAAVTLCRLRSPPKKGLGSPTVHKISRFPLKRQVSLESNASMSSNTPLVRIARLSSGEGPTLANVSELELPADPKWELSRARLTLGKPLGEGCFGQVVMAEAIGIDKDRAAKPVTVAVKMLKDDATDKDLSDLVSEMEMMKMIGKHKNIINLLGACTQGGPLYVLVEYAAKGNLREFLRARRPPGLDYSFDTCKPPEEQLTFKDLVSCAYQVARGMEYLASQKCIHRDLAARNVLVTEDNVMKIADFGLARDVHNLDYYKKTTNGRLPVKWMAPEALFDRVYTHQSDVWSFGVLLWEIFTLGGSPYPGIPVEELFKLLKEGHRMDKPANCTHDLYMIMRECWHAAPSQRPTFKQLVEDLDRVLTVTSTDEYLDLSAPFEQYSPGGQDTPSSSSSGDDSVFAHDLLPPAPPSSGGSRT

`O=C(Nc1cc(C(=O)Nc2ccc(S(=O)(=O)O)cc2S(=O)(=O)O)cc(C(=O)Nc2ccc(S(=O)(=O)O)cc2S(=O)(=O)O)c1)Nc1cc(C(=O)Nc2ccc(S(=O)(=O)O)cc2S(=O)(=O)O)cc(C(=O)Nc2ccc(S(=O)(=O)O)cc2S(=O)(=O)O)c1` [NF449, 4,4′,4″,4′″-[carbonyl-bis[imino-5,1,3-benzenetriylbis-{carbonylimino}]]tetrakis-{benzene-1,3-disulfonic acid}] was tested, and the “inhibition of FGFR3 kinase activity” value (0.1-30 μM range, FIG. 4b) was “some inhibition of FGFR3 kinase activity at all concentrations”, the “FGFR3-mediated tyrosine phosphorylation of STAT1” value (5-30 μM NF449 concentration range, FIG. 4a) was “inhibited at all concentrations” and the “concentration necessary to achieve more than 50% inhibition of FGFR3 kinase activity” value (FIG. 4b, densitometry P-STAT1/STAT1) was at least 2 µM. For the same molecule, the “effect on FGFR3 kinase activity (in words)” value was “inhibited the FGFR3-mediated tyrosine phosphorylation of STAT1”, the “effect on FGFR3 kinase activity (in words)” value (listed as 4,4′,4″,4′″-[carbonyl-bis[imino-5,1,3-benzenetriyl bis-{carbonylimino}]]tetrakis) was “inhibited” and the “concentration range inhibiting FGFR3 kinase activity” value (comparison with SU5402) was 2 to 20 µM.
